Assay results taken from US20210330611A1, “THERAPY FOR NEUROLOGICAL DISEASES/DISORDERS” (priority 2020, published 2021).
Read-outs that look alike come from different tables or passages of the source.

Assays:
[1] = system: fibrin-induced microglia activation; test: Image-based assay of fibrin-induced microglia activation (HTS and dose response); format: cell-based, rat; conditions: for inhibition at 10 µM: Rattus norvegicus, Microglia, read-out: Fibrin % inhibition
[2] = system: LPS-induced microglia activation; test: Image-based assay of LPS-induced microglia activation (HTS and dose response); format: cell-based, rat
[3] = system: fibrin- and LPS-induced microglia activation; test: cells; format: cell-based, rat
primary rat microglia [4] = system: primary rat microglia;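 on Fibrin % cell toxicity: share of dead cells sized under 150 µm2 at 10 µM in fibrin-stimulated microglia HTS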
primary rat microglia [5] = system: primary rat microglia; remark: listed apart in the source;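 on Fibrin % cell toxicity: share of dead cells sized under 150 µm2 at 10 µM in fibrin-stimulated microglia HTS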
[6] = primary microglia HTS, fibrin stimulation, increased cell size (>800 μm^2) as marker of activation
[7] = Rattus norvegicus, Microglia, 48 h, primary microglia HTS, LPS stimulation; increased cell size (>800 μm^2) as marker of activation; read-out: LPS % inhibition
[8] = quadrant by fibrin and LPS inhibition in HTS of 1907 compounds
[9] = Rattus norvegicus, Microglia, read-out: LPS % inhibition
[10] = Rattus norvegicus, Microglia, 48 h, read-out: LPS % inhibition
[11] = primary HTS, 10 μM, fibrin-stimulated primary microglia
[12] = Rattus norvegicus, Microglia, primary HTS, 10 μM, LPS-stimulated primary microglia; read-out: LPS % inhibition
[13] = primary microglia HTS, fibrin stimulation, cell size >800 μm2 as marker of activation
[14] = Rattus norvegicus, Microglia, 48 h; read-out: LPS % inhibition
[15] = classification by fibrin and LPS inhibition in HTS
[16] = primary microglia HTS, 10 μM, fibrin-stimulated, cell size >800 μm^2 as marker of activation
[17] = Rattus norvegicus, Microglia, primary microglia HTS, 10 μM, LPS-stimulated, cell size >800 μm^2 as marker of activation; read-out: LPS % inhibition
[18] = HTS of 1907 compounds, quadrant by fibrin and LPS inhibition

For N[C@@H](Cc1ccc(N(CCCl)CCCl)cc1)C(=O)O [Melphalan], the inhibition at 10 µM [1, 6] was 28%, the inhibition at 10 µM [2, 7] was 3% and the “Quadrant (FIG. 5b)” value [3, 8] was “Q4”. The “Fibrin % cell toxicity” value (primary rat microglia [4]; rat) was 0% and the “LPS % cell toxicity” value (primary rat microglia [5]; rat) was 0%.
NC(CO)(CO)CO [Tris] was tested, and the Fibrin % inhibition ([1]; 10 µM) was −18%, the LPS % inhibition ([2]; 10 µM) was 41% and the “Quadrant (FIG. 5b)” value [3] was “Q4”. The “Fibrin % cell toxicity” value (primary rat microglia [4]) was 1% and the “LPS % cell toxicity” value (primary rat microglia [5]) was 1%.
Nc1nc(=O)n([C@@H]2CS[C@H](CO)O2)cc1F [Emtricitabine] was tested, and the inhibition at 10 µM [1] was -73%, the inhibition at 10 µM [2, 9] was 11% and the “Quadrant (FIG. 5b)” value [3] was “Q4”. For the same compound, the “Fibrin % cell toxicity” value (primary rat microglia [4]; rat) was 1% and the “LPS % cell toxicity” value (primary rat microglia [5]; rat) was 1%.
C1CNCCN1 [Piperazine] was tested, and the inhibition at 10 µM [1] was -3%, the inhibition at 10 µM [2, 10] was 16% and the “Quadrant (FIG. 5b)” value [3] was “Q4”. The “Fibrin % cell toxicity” value (primary rat microglia [4]; rat) was 0% and the “LPS % cell toxicity” value (primary rat microglia [5]; rat) was 0%.
For Oc1c(Cl)cc(Cl)c2cccnc12 [Chloroxine], the inhibition at 10 µM [1, 11] was -17%, the inhibition at 10 µM [2, 12] was 8% and the “Quadrant (FIG. 5b)” value ([3]; primary HTS, 10 μM) was “Q4”. The “Fibrin % cell toxicity” value (primary rat microglia [4]; rat) was 1% and the “LPS % cell toxicity” value (primary rat microglia [5]; rat) was 0%.
With CC(C)=CC1C(C(=O)OCc2cccc(Oc3ccccc3)c2)C1(C)C (stereo not shown) [Phenothrin] the inhibition at 10 µM [1, 13] was -50%, the inhibition at 10 µM [2, 14] was 11% and the “Quadrant (FIG. 5b)” value [3, 15] was “Q4”. The “Fibrin % cell toxicity” value (primary rat microglia [4]; rat) was 0% and the “LPS % cell toxicity” value (primary rat microglia [5]; rat) was 0%.
For CN1CCN(CC/C=C2/c3ccccc3Sc3ccc(S(=O)(=O)N(C)C)cc32)CC1 [Thiothixene], the inhibition at 10 µM [1, 16] was -4%, the inhibition at 10 µM [2, 17] was 37% and the “Quadrant (FIG. 5b)” value [3, 18] was “Q4”. The “Fibrin % cell toxicity” value (primary rat microglia [4]; rat) was 0% and the “LPS % cell toxicity” value (primary rat microglia [5]; rat) was 0%.
With CC(C)(C(=O)c1cccnc1)c1cccnc1 [Metyrapone] the inhibition at 10 µM [1, 6] was -60%, the inhibition at 10 µM [2, 7] was 39% and the “Quadrant (FIG. 5b)” value [3, 8] was “Q4”. For the same compound, the “Fibrin % cell toxicity” value (primary rat microglia [4]; rat) was 1% and the “LPS % cell toxicity” value (primary rat microglia [5]; rat) was 0%.
For C[n+]1ccccc1/C=N/O [Pralidoxime], the inhibition at 10 µM [1] was -12%, the inhibition at 10 µM [2, 10] was 17% and the “Quadrant (FIG. 5b)” value [3] was “Q4”. The “Fibrin % cell toxicity” value (primary rat microglia [4]; rat) was 1% and the “LPS % cell toxicity” value (primary rat microglia [5]; rat) was 0%.
For CC(C)(Oc1ccc(C2CC2(Cl)Cl)cc1)C(=O)O (stereo not shown) [Ciprofibrate], the inhibition at 10 µM [1, 11] was -16%, the inhibition at 10 µM [2, 12] was 16% and the “Quadrant (FIG. 5b)” value ([3]; primary HTS, 10 μM) was “Q4”. For the same compound, the “Fibrin % cell toxicity” value (primary rat microglia [4]; rat) was 0% and the “LPS % cell toxicity” value (primary rat microglia [5]; rat) was 1%.
With O=c1cccc2n1C[C@@H]1CNC[C@H]2C1 [Cytisine] the inhibition at 10 µM [1] was 23%, the inhibition at 10 µM [2, 9] was 16% and the “Quadrant (FIG. 5b)” value [3] was “Q4”. The “Fibrin % cell toxicity” value (primary rat microglia [4]; rat) was 1% and the “LPS % cell toxicity” value (primary rat microglia [5]; rat) was 1%.
Cc1cccc(C)c1OCC(C)N (stereo not shown) [Mexiletine] was tested, and the inhibition at 10 µM [1] was 2%, the inhibition at 10 µM [2, 10] was 13% and the “Quadrant (FIG. 5b)” value [3] was “Q4”. For the same compound, the “Fibrin % cell toxicity” value (primary rat microglia [4]; rat) was 1% and the “LPS % cell toxicity” value (primary rat microglia [5]; rat) was 0%.
For O=C(O)c1ccccc1 [Benzoic Acid], the inhibition at 10 µM [1] was -6%, the inhibition at 10 µM [2, 9] was 6% and the “Quadrant (FIG. 5b)” value [3] was “Q4”. For the same compound, the “Fibrin % cell toxicity” value (primary rat microglia [4]; rat) was 0% and the “LPS % cell toxicity” value (primary rat microglia [5]; rat) was 0%.
In the case of CC(=O)CCCCn1c(=O)c2c(ncn2C)n(C)c1=O [Pentoxifylline], the inhibition at 10 µM [1, 13] was 4%, the inhibition at 10 µM [2, 14] was 6% and the “Quadrant (FIG. 5b)” value [3, 15] was “Q4”. For the same compound, the “Fibrin % cell toxicity” value (primary rat microglia [4]; rat) was 0% and the “LPS % cell toxicity” value (primary rat microglia [5]; rat) was 0%.
In the case of CCn1cc(C(=O)O)c(=O)c2cnc(N3CCNCC3)nc21 [Pipemidic Acid], the inhibition at 10 µM [1, 13] was -27%, the inhibition at 10 µM [2, 14] was 12% and the “Quadrant (FIG. 5b)” value [3, 15] was “Q4”. The “Fibrin % cell toxicity” value (primary rat microglia [4]; rat) was 1% and the “LPS % cell toxicity” value (primary rat microglia [5]; rat) was 0%.
With CN[C@H](CC(C)C)C(=O)N[C@H]1C(=O)N[C@@H](CC(N)=O)C(=O)N[C@H]2C(=O)N[C@H]3C(=O)N[C@H](C(=O)N[C@H](C(=O)O)c4cc(O)cc(O)c4-c4cc3ccc4O)[C@H](O)c3ccc(c(Cl)c3)Oc3cc2cc(c3O[C@@H]2O[C@H](CO)[C@@H](O)[C@H](O)[C@H]2O[C@H]2C[C@](C)(N)[C@H](O)[C@H](C)O2)Oc2ccc(cc2Cl)[C@H]1O [Vancomycin] the Fibrin % inhibition ([1]; 10 µM) was −1%, the LPS % inhibition ([2]; 10 µM) was −2% and the “Quadrant (FIG. 5b)” value [3] was “Q4”. The “Fibrin % cell toxicity” value (primary rat microglia [4]; rat) was 1% and the “LPS % cell toxicity” value (primary rat microglia [5]; rat) was 0%.
COC(=O)[C@H]1[C@H]2C[C@@H]3c4[nH]c5cc(OC)ccc5c4CCN3C[C@H]2C[C@@H](OC(=O)c2cc(OC)c(OC)c(OC)c2)[C@@H]1OC [Reserpine] was tested, and the inhibition at 10 µM [1, 6] was -4%, the inhibition at 10 µM [2, 7] was 64% and the “Quadrant (FIG. 5b)” value [3, 8] was “Q1”. The “Fibrin % cell toxicity” value (primary rat microglia [4]; rat) was 3% and the “LPS % cell toxicity” value (primary rat microglia [5]; rat) was 7%.
N[C@@H]1C[C@H]1c1ccccc1 (racemic) [Tranylcypromine] was tested, and the Fibrin % inhibition ([1]; 10 µM) was 5%, the LPS % inhibition ([2]; 10 µM) was −5% and the “Quadrant (FIG. 5b)” value [3] was “Q4”. For the same compound, the “Fibrin % cell toxicity” value (primary rat microglia [4]) was 1% and the “LPS % cell toxicity” value (primary rat microglia [5]) was 0%.
In the case of COc1cc(N)c(Cl)cc1C(=O)NC1CCN(CCCOc2ccc(F)cc2)CC1OC (stereo not shown) [Cisapride], the inhibition at 10 µM [1, 11] was -38%, the inhibition at 10 µM [2, 12] was 5% and the “Quadrant (FIG. 5b)” value ([3]; primary HTS, 10 μM) was “Q4”. For the same compound, the “Fibrin % cell toxicity” value (primary rat microglia [4]; rat) was 0% and the “LPS % cell toxicity” value (primary rat microglia [5]; rat) was 0%.
For S=P(N1CC1)(N1CC1)N1CC1 [Thiotepa], the inhibition at 10 µM [1, 16] was -15%, the inhibition at 10 µM [2, 17] was 15% and the “Quadrant (FIG. 5b)” value [3, 18] was “Q4”. The “Fibrin % cell toxicity” value (primary rat microglia [4]; rat) was 1% and the “LPS % cell toxicity” value (primary rat microglia [5]; rat) was 1%.
In the case of O=c1oc2c(O)c(O)cc3c(=O)oc4c(O)c(O)cc1c4c23 [Ellagic Acid], the inhibition at 10 µM ([1]; primary microglia HTS, fibrin stimulation, compounds at 10 μM) was -5%, the inhibition at 10 µM ([2]; Rattus norvegicus, Microglia, primary microglia HTS, LPS stimulation, compounds at 10 μM; read-out: LPS % inhibition) was 24% and the “Quadrant (FIG. 5b)” value ([3]; classification by fibrin and LPS inhibition, HTS at 10 μM) was “Q4”. The “Fibrin % cell toxicity” value (primary rat microglia [4]; rat) was 1% and the “LPS % cell toxicity” value (primary rat microglia [5]; rat) was 0%.
With Clc1cccc(Cl)c1N=C1NCCN1 [Clonidine] the inhibition at 10 µM [1] was -22%, the inhibition at 10 µM [2, 9] was 14% and the “Quadrant (FIG. 5b)” value [3] was “Q4”. The “Fibrin % cell toxicity” value (primary rat microglia [4]; rat) was 1% and the “LPS % cell toxicity” value (primary rat microglia [5]; rat) was 0%.
CC(C)(O)c1ccccc1CC[C@@H](SCC1(CC(=O)O)CC1)c1cccc(/C=C/c2ccc3ccc(Cl)cc3n2)c1 [Montelukast] was tested, and the Fibrin % inhibition [1] was −5%, the inhibition at 10 µM [2, 10] was 12% and the “Quadrant (FIG. 5b)” value [3] was “Q4”. The “Fibrin % cell toxicity” value (primary rat microglia [4]; rat) was 1% and the “LPS % cell toxicity” value (primary rat microglia [5]; rat) was 0%.
CCCCC1C(=O)N(c2ccccc2)N(c2ccc(O)cc2)C1=O (stereo not shown) [Oxyphenbutazone] was tested, and the Fibrin % inhibition [1, 6] was 2%, the LPS % inhibition ([2]; primary microglia HTS, LPS stimulation; increased cell size (>800 μm^2) as marker of activation) was 114% and the “Quadrant (FIG. 5b)” value [3, 8] was “Q1”. The “Fibrin % cell toxicity” value (primary rat microglia [4]) was 1% and the “LPS % cell toxicity” value (primary rat microglia [5]) was 97%.
With CC(C)(C)NCC(O)c1ccc(O)c(CO)c1 (stereo not shown) [Salbutamol] the inhibition at 10 µM [1, 13] was 25%, the inhibition at 10 µM [2, 14] was 25% and the “Quadrant (FIG. 5b)” value [3, 15] was “Q4”. The “Fibrin % cell toxicity” value (primary rat microglia [4]; rat) was 1% and the “LPS % cell toxicity” value (primary rat microglia [5]; rat) was 0%.
CO/N=C(\C(=O)N[C@@H]1C(=O)N2C(C(=O)O)=C(COC(N)=O)CS[C@H]12)c1ccco1 [Cefuroxime Sodium] was tested, and the Fibrin % inhibition [1, 11] was −12%, the LPS % inhibition ([2]; primary HTS, 10 μM, LPS-stimulated primary microglia) was 19% and the “Quadrant (FIG. 5b)” value ([3]; primary HTS, 10 μM) was “Q4”. For the same compound, the “Fibrin % cell toxicity” value (primary rat microglia [4]; rat) was 1% and the “LPS % cell toxicity” value (primary rat microglia [5]; rat) was 1%.
Cc1cc2c(s1)Nc1ccccc1N=C2N1CCN(C)CC1 [Olanzapine] was tested, and the inhibition at 10 µM [1] was 6%, the inhibition at 10 µM [2, 10] was 9% and the “Quadrant (FIG. 5b)” value [3] was “Q4”. The “Fibrin % cell toxicity” value (primary rat microglia [4]; rat) was 1% and the “LPS % cell toxicity” value (primary rat microglia [5]; rat) was 0%.
O=C1CCC(N2C(=O)c3ccccc3C2=O)C(=O)N1 (stereo not shown) [Thalidomide] was tested, and the inhibition at 10 µM [1, 16] was 8%, the inhibition at 10 µM [2, 17] was 23% and the “Quadrant (FIG. 5b)” value [3, 18] was “Q4”. The “Fibrin % cell toxicity” value (primary rat microglia [4]; rat) was 0% and the “LPS % cell toxicity” value (primary rat microglia [5]; rat) was 1%.
In the case of CNNCc1ccc(C(=O)NC(C)C)cc1 [Procarbazine], the inhibition at 10 µM [1, 13] was -21%, the inhibition at 10 µM [2, 14] was 9% and the “Quadrant (FIG. 5b)” value [3, 15] was “Q4”. For the same compound, the “Fibrin % cell toxicity” value (primary rat microglia [4]; rat) was 1% and the “LPS % cell toxicity” value (primary rat microglia [5]; rat) was 0%.
